According to patent US20060201053A1, “Barrier preventing wood pest access to wooden structures” (priority 2000, published 2006):
Marks after values point to notes of the source that are not given here.

Experiments:
Format in all cases: physicochemical
[1] = Effect of carbon black binding carrier on release rate (Example 6); settings: active chemical 5 wt. %, high density polyethylene (MA 778-000), 6 weeks after fabrication
Procedure: Release rates were measured at 6 weeks after fabrication wherein samples were wiped weekly to remove surface accumulation of released active chemical.

[2] = Release rate versus lambda cyhalothrin concentration and polymer combination (Example 4)
Procedure: An experiment was conducted to determine the effect of lambda cyhalothrin (pyrethroid) concentration and insecticide/polymer combination on release rate of insecticide from the polymer.

[3] = Thermal decomposition of the pesticide during processing
Procedure: To have a safety cushion for operating conditions, it is beneficial to have a processing temperature of approximately 150° C.
(§1) The polymers evaluated included low melt polyethylene, polyurethane, two epoxies, silicone rubber, and a low melt polyethylene high in waxes to reduce thermal decomposition of the chlorpyrifos.

[4] = Release rate of pesticides from controlled release devices, one inch squares of 1/8 inch sheets (Example 3)
Excerpt: Controlled release devices were made and tested to obtain their release rates. All thermoplastic polymers were formulated with 10 percent pesticide, 3 or 7 percent carbon black to absorb liquid pesticide, and 83 to 87 percent by weight of polymer and injection molded into thin sheets about ⅛ inch thick. […] The devices made from the remaining pesticides and thermoplastic polymers contained 7 percent of carbon black.
The devices made from S-113 urethane (a thermoset polymer) were made from a polymer mix containing 60% S-113, 40% castor oil and […] of TIPA catalyst by weight. The polymer mix comprised 90% of the total weight of the device. The pesticide, deltamethrin, comprised the remaining 10% of the device. No carbon black was used in this device. The polymer/pesticide mixture was cast into a ⅛ inch thick sheet and heated at about 60° C. for about 40 to 60 minutes to cure the cast sheet.
One inch squares were then cut from the thin sheets that were injection molded or cast and the squares were tested for release rates.

[5] = Release rate of lambda cyhalothrin from multi-layer barrier film
Excerpt: The release rate of bioactive chemicals from the bonding layer 126 to the other layers is greater than the release rate of bioactive chemicals from the barrier film 110 to the exterior of the barrier film 110.

[6] = Release rate of pyrethrin from polymer systems (Example 2); settings: Pyrethrin I content 10%, 40° C.
Procedure: Studies were also conducted with similar polymer systems as in Example 1 but with 80% pure pyrethrin.

[7] = Release rate of 10 wt. % pyrethroid impregnated polymers (Example 5)
[8] = Release rate of chlorpyrifos from polymer devices (Example 1); settings: 50° C.
Procedure: Experiments were conducted to determine the release rate of chlorpyrifos. Loading rates for the insecticide were either 5 wt. % (weight percent) or 10 wt. % depending on the polymer. Release rates were determined for all devices at 50° C.
as §1
Release rates ranged from 10 μg/cm^2/day for the silicone rubber to 0.3 μg/cm^2/day for Epoxy B.

[9] = Polyethylene MA 778-000, 10 percent pesticide
[10] = Polyurethane 2200, 10 percent pesticide
[11] = Polyurethane 3100, 10 percent pesticide

Compound: CC1(C)[C@H](C(=O)O[C@H](C#N)c2cccc(Oc3ccccc3)c2)[C@@H]1/C=C(\Cl)C(F)(F)F (racemic) [Lambda cyhalothrin]
- Release Rate ([1]; carbon black 0 wt. %): 1.78 μg/cm^2/day
- Release Rate ([1]; carbon black 10 wt. %): 0.81 μg/cm^2/day
- Release Rate ([1]; carbon black 20 wt. %): 0.61 μg/cm^2/day
- Pyrethroid Release Rate ([2]; Ethylvinyl Acetate (EVA), pyrethroid 1 wt. %): 0.3 mg/cm^2/da
- Pyrethroid Release Rate ([2]; Ethylvinyl Acetate (EVA), pyrethroid 5 wt. %): 2.2 mg/cm^2/da
- Pyrethroid Release Rate ([2]; Ethylvinyl Acetate (EVA), pyrethroid 10 wt. %): 2.5 mg/cm^2/da
- Pyrethroid Release Rate ([2]; Polyurethane, pyrethroid 1 wt. %): 0.9 mg/cm^2/da
- Pyrethroid Release Rate ([2]; Polyurethane, pyrethroid 5 wt. %): 4.4 mg/cm^2/da
- Pyrethroid Release Rate ([2]; Polyurethane, pyrethroid 10 wt. %): 8.3 mg/cm^2/da
- Pyrethroid Release Rate ([2]; Polyurethane/EVA (50/50), pyrethroid 1 wt. %): 2.6 mg/cm^2/da
- Pyrethroid Release Rate ([2]; Polyurethane/EVA (50/50), pyrethroid 5 wt. %): 7.2 mg/cm^2/da
- Pyrethroid Release Rate ([2]; Polyurethane/EVA (50/50), pyrethroid 10 wt. %): 9.1 mg/cm^2/da
- temperature above which thermal decomposition and volatilization occurs ([3]; in the manufacturing process): > 160 °C
- Release Rate ([4]; EVA 763, 10 percent pesticide): 27.3 μg/cm^2/day
- Release Rate [4, 9]: 4.6 μg/cm^2/day
- Release Rate [4, 10]: 0.7 μg/cm^2/day
- Release Rate [4, 11]: 0.4 μg/cm^2/day
- release rate from barrier film ([5]; preferred eight-layer embodiment): less than 0.002 μg per square centimeter of film per day
- release rate from barrier film ([5]; six-layer embodiment): less than 0.002 μg per square centimeter of film per day

Compound: C=C/C=C\CC1=C(C)[C@@H](OC(=O)[C@@H]2[C@@H](C=C(C)C)C2(C)C)CC1=O [Pyrethrin I]
- Release Rate ([6]; Epoxy A): 0.5 ± 0.2 μg/cm^2/day
- Release Rate ([6]; Epoxy B): 0.2 ± 0.1 μg/cm^2/day
- Release Rate ([6]; Silicone): 21.2 ± 5.4 μg/cm^2/day
- Release Rate ([6]; Urethane): 15.7 ± 7.1 μg/cm^2/day

Compound: CC1(C)C(C=C(Cl)Cl)C1C(=O)OC(C#N)c1cccc(Oc2ccccc2)c1 (stereo not shown) [Cypermethrin]
- Release Rate ([4]; EVA 763, 10 percent pesticide): 27.3 μg/cm^2/day
- Release Rate [4, 9]: 4.6 μg/cm^2/day
- Release Rate [4, 10]: 0.7 μg/cm^2/day
- Release Rate [4, 11]: 0.4 μg/cm^2/day

Compound: CC1(C)C(C=C(Cl)Cl)C1C(=O)OCc1cccc(Oc2ccccc2)c1 (stereo not shown) [Permethrin]
- Release Rate ([7]; Ethylvinyl acetate): 3.9 mg/cm^2/da
- Release Rate ([7]; Polyethylene): 1.4 mg/cm^2/da
- Release Rate ([4]; EVA 763, 10 percent pesticide): 28.5 μg/cm^2/day
- Release Rate [4, 9]: 4.0 μg/cm^2/day
- Release Rate [4, 10]: 1.3 μg/cm^2/day
- Release Rate [4, 11]: 1.4 μg/cm^2/day

Compound: CCOP(=S)(OCC)Oc1nc(Cl)c(Cl)cc1Cl [Chlorpyrifos, chlorpyrifos]
- temperature above which excessive thermal decomposition occurred ([3]; polymer processing): > 240 °C
- Release Rate ([8]; Epoxy A, chlorpyrifos content 5%): <0.1 μg/cm^2/da
- Release Rate ([8]; Epoxy B, chlorpyrifos content 10%): 0.3 ± 0.1 μg/cm^2/da
- Release Rate ([8]; Epoxy B, chlorpyrifos content 10%, listed as chlorpyrifos): 0.3 μg/cm^2/da
- Release Rate ([8]; PE + Wax, chlorpyrifos content 10%): 1.9 ± 0.3 μg/cm^2/da
- Release Rate ([8]; Polyurethane, chlorpyrifos content 5%, material exhibited excessive cracking): 2.1 ± 1.4^b μg/cm^2/da
- Release Rate ([8]; Silicone, chlorpyrifos content 5%): 10.3 ± 3.5 μg/cm^2/da
- Release Rate ([8]; Silicone, chlorpyrifos content 5%, listed as chlorpyrifos): 10 μg/cm^2/da
- Release Rate ([8]; Urethane, chlorpyrifos content 10%): 1.0 ± 0.3 μg/cm^2/da

Compound: CC1(C)[C@H](C(=O)O[C@H](C#N)c2cccc(Oc3ccccc3)c2)[C@@H]1C=C(Br)Br [Deltamethrin]
- Release Rate ([4]; Alipmtic PS-49-100, 10 percent pesticide): 7.2 μg/cm^2/day
- Release Rate ([4]; Aromatic 80A, 10 percent pesticide): 16.8 μg/cm^2/day
- Release Rate ([4]; Pellethane 2102-55D, 10 percent pesticide): 8.0 μg/cm^2/day
- Release Rate ([4]; Pellethane 2102-80A, 10 percent pesticide): 8.8 μg/cm^2/day
- Release Rate ([4]; S-113 urethane, 10% pesticide, no carbon black): 25.2 μg/cm^2/day

Compound: Cc1c(F)c(F)c(COC(=O)[C@@H]2[C@H](/C=C(\Cl)C(F)(F)F)C2(C)C)c(F)c1F (racemic) [Tefluthrin]
- Release Rate ([1]; carbon black 0 wt. %): 3.13 μg/cm^2/day
- Release Rate ([1]; carbon black 10 wt. %): 0.71 μg/cm^2/day
- Release Rate ([7]; Ethylvinyl acetate): 4.3 mg/cm^2/da
- Release Rate ([7]; Polyethylene): 2.2 mg/cm^2/da
- Release Rate ([4]; EVA 763, 10 percent pesticide): 40.4 μg/cm^2/day
- Release Rate [4, 9]: 27.0 μg/cm^2/day
- Release Rate [4, 10]: 25.0 μg/cm^2/day
- Release Rate [4, 11]: 6.4 μg/cm^2/day
